Reference: patent US7534762B2, “Polypeptides having antimicrobial activity and polynucleotides encoding same” (Novozymes A/S, priority 2005, dated 2009)

Assays:
Assay in all cases: Radial diffusion assay
Type in all cases: cell-based
[1] = system: Pseudomonas boreopolis (ATCC 15452); settings: TCA precipitated culture supernatant, 100 x concentrated; 10 units = 1 mm diameter clear zone around the 3 mm sample well
Procedure: (§1) The supernatants described above in Example 4 were analyzed in a radial diffusion assay following a previously published protocol for detection of antimicrobial activity (Lehrer et al., (1991) Ultra sensitive assays for endogenous antimicrobial polypeptides J Immunol Methods 137: 167-173). Target bacteria (10^6 colony forming units (CFU)) were added to 10 ml of underlay agarose (1% low electro-endosmosis agarose, 0.03% Trypticase soy broth, 10 mM sodium phosphate, pH 7.4, 37 degrees Celsius). Suspension was solidified on an INTEGRID Petri Dish (Becton Dickinson Labware, NJ). A 3 mm Gel Puncher was used to make holes in the underlay agarose (Amersham Pharmacia Biotech, Sweden). Samples were added to the holes and incubated at 37 degrees Celsius, 3 hours. An overlay was poured on top and the plate was incubated overnight (LB media, 7.5% Agar). Antimicrobial activity was seen as bacterial clearing zones around the wells. Living cells was counterstained by adding 10 ml, 0.2 mM MTT (3-(4,5-Dimethylthiazol-2-yl)-2,5-diphenyltetrazolium bromide Thiazolyl blue). All standard protocols have been described elsewhere (Sambrook, Fritsch, and Maniatis, 1989). An electronic picture is taken. The bacterial growth inhibition is seen as clearing zones, which are measured to the nearest 0.1 mm and subtracted the diameter of the hole. The results are shown as zones of inhibition of native samples (Table 3) and concentrated samples (Table 4) against a range of test strains: • A: Staphylococcus simulans (ATCC 11631) • B: Staphylococcus carnosus (ATCC 51365) • C: Streptococcus hyointestinalis (ATCC 49169) • D: Bacillus subtilis (ATCC 23857) • E: Enterococcus saccharolyticus (ATCC 43076) • F: Escherichia coli (ATCC 10536) • G: Acinetobacter anitratus (ATCC 17903) • H: Erwinia chrysanthemi (ATCC 11663) • J: Pseudomonas boreopolis (ATCC 15452)
(§2) Concentration of samples was performed by precipitation of 45 ml culture supernatant with 2.5 ml 100% TCA and resuspension of the pelleted precipitate in 450 μl resuspension buffer (100 mM Tris pH 8, 100 mM NaCl).

[2] = system: Staphylococcus carnosus (ATCC 51365); settings: 10 units = 1 mm diameter clear zone around the 3 mm sample well
Procedure: as §1, §2

[3] = system: Staphylococcus simulans (ATCC 11631); settings: TCA precipitated culture supernatant, 100 x concentrated; 10 units = 1 mm diameter clear zone around the 3 mm sample well
Procedure: as §1, §2

[4] = system: Acinetobacter anitratus (ATCC 17903); settings: TCA precipitated culture supernatant, 100 x concentrated; 10 units = 1 mm diameter clear zone around the 3 mm sample well
Procedure: as §1, §2

[5] = system: Bacillus subtilis (ATCC 23857); settings: 10 units = 1 mm diameter clear zone around the 3 mm sample well
Procedure: as §1, §2

[6] = system: Streptococcus hyointestinalis (ATCC 49169); settings: 10 units = 1 mm diameter clear zone around the 3 mm sample well
Procedure: as §1, §2

[7] = system: Erwinia chrysanthemi (ATCC 11663); settings: TCA precipitated culture supernatant, 100 x concentrated; 10 units = 1 mm diameter clear zone around the 3 mm sample well
Procedure: as §1, §2

[8] = system: Escherichia coli (ATCC 10536); settings: TCA precipitated culture supernatant, 100 x concentrated; 10 units = 1 mm diameter clear zone around the 3 mm sample well
Procedure: as §1, §2

[9] = system: Enterococcus saccharolyticus (ATCC 43076); settings: 10 units = 1 mm diameter clear zone around the 3 mm sample well
Procedure: as §1, §2

[10] = TCA precipitated culture supernatant, 100 x concentrated
[11] = native culture supernatant of recombinant A. oryzae clone

| Substance | zone of inhibition, test strain J [1] [units] | zone of inhibition, test strain B [2, 10] [units] | zone of inhibition, test strain B [2, 11] [units] | zone of inhibition, test strain A [3] [units] | zone of inhibition, test strain G [4] [units] | zone of inhibition, test strain D [5, 10] [units] | zone of inhibition, test strain D [5, 11] [units] | zone of inhibition, test strain C [6, 10] [units] | zone of inhibition, test strain C [6, 11] [units] | zone of inhibition, test strain H [7] [units] | zone of inhibition, test strain F [8] [units] | zone of inhibition, test strain E [9, 10] [units] | zone of inhibition, test strain E [9, 11] [units] |
| --- | --- | --- | --- | --- | --- | --- | --- | --- | --- | --- | --- | --- | --- |
| Marinasin 1B: Arenicola marina antimicrobial polypeptide, amino acids 1 to 49 of SEQ ID NO: 8, expressed in Aspergillus oryzae (MKFFLPIMIALAFAAVAMATADTEPVEPEEELSIMLPFVEDDLLEKPIP; listed as Arenicola marina) | 28 | 25 | 21 | 22 | 26 | 28 | 10 | 22 | 10 | 25 | 25 | 30 | 9 |
| Marinasin 2A: Arenicola marina antimicrobial polypeptide, amino acids 1 to 46 of SEQ ID NO: 12, expressed in Aspergillus oryzae (MNQITLLMLLVAVAVMATVTGQSLDDESDVENVSQPEQRGWCWQWT; listed as Arenicola marina) | 39 | 35 | 26 | 34 | 39 | 38 | 16 | 35 | 12 | 40 | 25 | 41 | 14 |
| Marinasin 6: Arenicola marina antimicrobial polypeptide, amino acids 1 to 44 of SEQ ID NO: 26, expressed in Aspergillus oryzae (MTTLLLMFGVAIVVLATVAAVPLQDDDVLDPSGLVEGETRGRSC; listed as Arenicola marina) |  |  |  |  |  |  | 39 |  | 45 |  |  |  | 40 |
| Marinasin 4: Arenicola marina antimicrobial polypeptide, amino acids 1 to 45 of SEQ ID NO: 22, expressed in Aspergillus oryzae (MKPIILLMLLVAVVVMATVTAEPLDEESDVEIVSQPEQRIPCWTP; listed as Arenicola marina) | 0 | 81 | 60 | 14 | 6 | 32 | 32 | 59 | 54 | 0 | 0 | 68 | 43 |
| Marinasin 5: Arenicola marina antimicrobial polypeptide, amino acids 1 to 49 of SEQ ID NO: 24, expressed in Aspergillus oryzae (MKFLLPLMVVMAFAAVAMATADTEPVEREEGVFIMLPFVEDDMLEKPIL; listed as Arenicola marina) | 22 | 13 |  | 22 | 26 | 25 |  | 24 |  | 26 | 19 | 23 |  |
